Test results from ChEMBL document CHEMBL1201862, “PubChem BioAssay data set” (2004).
Calls of active or inactive are those of the source.

What was measured:
[1] = molecular target: T1, Replicative DNA helicase DnaB (Mycobacterium tuberculosis, UniProt P9WMR3); experiment: DnaB intein splicing inhibitors, dose response, biochemical, cell-free fluorescence (AID 449749); format: functional
T1 sequence (P9WMR3 whole entry): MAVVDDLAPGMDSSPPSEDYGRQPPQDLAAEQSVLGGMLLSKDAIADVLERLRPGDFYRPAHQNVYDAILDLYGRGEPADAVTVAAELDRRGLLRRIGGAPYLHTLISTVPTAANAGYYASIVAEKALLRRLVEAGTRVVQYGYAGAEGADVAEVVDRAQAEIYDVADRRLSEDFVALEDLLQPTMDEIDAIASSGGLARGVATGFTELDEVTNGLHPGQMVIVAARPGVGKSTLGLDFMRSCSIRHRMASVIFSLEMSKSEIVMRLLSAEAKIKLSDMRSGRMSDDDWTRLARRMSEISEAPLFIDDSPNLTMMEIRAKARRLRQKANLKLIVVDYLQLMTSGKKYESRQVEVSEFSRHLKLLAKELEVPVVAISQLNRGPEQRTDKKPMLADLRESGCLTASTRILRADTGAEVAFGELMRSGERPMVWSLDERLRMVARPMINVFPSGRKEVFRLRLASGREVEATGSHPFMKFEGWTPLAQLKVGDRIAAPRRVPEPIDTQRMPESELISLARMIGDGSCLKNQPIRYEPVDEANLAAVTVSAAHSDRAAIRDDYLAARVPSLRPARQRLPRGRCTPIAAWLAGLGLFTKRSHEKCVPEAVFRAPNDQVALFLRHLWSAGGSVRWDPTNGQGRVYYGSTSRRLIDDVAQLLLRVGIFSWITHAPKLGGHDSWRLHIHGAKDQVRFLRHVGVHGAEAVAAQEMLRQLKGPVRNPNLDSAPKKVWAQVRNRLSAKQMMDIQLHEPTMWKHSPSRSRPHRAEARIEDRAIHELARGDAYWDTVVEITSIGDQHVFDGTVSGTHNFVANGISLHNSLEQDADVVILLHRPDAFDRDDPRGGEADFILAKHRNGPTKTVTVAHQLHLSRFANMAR

Protein RecA = molecular target: T2, Protein RecA (Mycobacterium tuberculosis, UniProt P9WHJ3); experiment: Fluorescence Cell-Free Homogeneous Dose Retest to Identify Inhibitors of RecA-Intein Splicing Activity. [Related pubchem assays (depositor defined):AID2097, AID2223, AID489010, AID492950]; format: functional
T2 sequence (P9WHJ3 whole entry): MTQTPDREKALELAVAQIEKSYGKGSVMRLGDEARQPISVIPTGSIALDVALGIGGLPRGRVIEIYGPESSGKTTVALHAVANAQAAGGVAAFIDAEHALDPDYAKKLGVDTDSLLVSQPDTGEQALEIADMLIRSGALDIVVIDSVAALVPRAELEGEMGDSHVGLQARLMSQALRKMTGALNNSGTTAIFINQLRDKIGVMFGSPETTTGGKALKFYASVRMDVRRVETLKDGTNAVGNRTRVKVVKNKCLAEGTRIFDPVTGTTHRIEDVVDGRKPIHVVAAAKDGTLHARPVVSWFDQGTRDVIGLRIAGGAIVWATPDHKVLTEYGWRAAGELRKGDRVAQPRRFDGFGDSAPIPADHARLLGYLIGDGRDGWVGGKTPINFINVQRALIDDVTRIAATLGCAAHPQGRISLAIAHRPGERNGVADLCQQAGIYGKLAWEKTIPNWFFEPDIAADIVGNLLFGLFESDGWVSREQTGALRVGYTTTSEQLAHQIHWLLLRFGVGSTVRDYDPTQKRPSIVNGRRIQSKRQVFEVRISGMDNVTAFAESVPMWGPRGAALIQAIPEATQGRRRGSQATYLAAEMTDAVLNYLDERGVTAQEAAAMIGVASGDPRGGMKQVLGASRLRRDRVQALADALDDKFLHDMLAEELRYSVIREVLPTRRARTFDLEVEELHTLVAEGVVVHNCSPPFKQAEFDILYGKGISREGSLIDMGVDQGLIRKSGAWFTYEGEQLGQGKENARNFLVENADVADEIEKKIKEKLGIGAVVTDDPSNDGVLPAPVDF

Cytochrome P450 3A4 = Cytochrome P450 3A4 (Homo sapiens, UniProt P08684);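 also: CYP3A4 tested as one member of a cytochrome P450 panel screen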
Sequence of Cytochrome P450 3A4 (P08684 whole entry): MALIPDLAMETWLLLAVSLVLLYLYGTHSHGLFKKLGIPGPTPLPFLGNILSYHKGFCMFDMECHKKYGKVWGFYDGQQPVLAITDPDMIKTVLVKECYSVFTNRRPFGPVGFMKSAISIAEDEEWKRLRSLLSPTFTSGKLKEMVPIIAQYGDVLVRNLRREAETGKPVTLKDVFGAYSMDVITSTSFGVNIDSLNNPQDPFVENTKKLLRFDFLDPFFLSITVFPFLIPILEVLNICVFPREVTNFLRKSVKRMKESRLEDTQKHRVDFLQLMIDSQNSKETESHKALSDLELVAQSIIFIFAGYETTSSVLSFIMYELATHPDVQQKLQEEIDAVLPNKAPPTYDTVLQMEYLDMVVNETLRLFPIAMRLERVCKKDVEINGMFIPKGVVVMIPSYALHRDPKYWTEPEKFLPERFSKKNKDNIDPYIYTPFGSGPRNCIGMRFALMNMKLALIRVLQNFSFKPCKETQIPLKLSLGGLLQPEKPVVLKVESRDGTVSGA

[2] = system: Streptococcus sp. 'group A'; experiment: growth inhibition of control SK(-) GAS strain, dose response, counter-screen for streptokinase expression inhibitor project, luminescence, kanamycin, BacTiterGlo, confirmation (AID 1900); format: functional, organism-based
Streptokinase A = molecular target: T3, Streptokinase A (Streptococcus pyogenes serotype M1, UniProt P10520); experiment: S. pyogenes streptokinase expression inhibitors, potency, dose response, plasminogen activation absorbance, OD405 (AID 1914); format: functional, Streptococcus pyogenes M1 GAS;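 also: secreted streptokinase activity via plasminogen activation per viability signal from cell pellet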
T3 sequence (P10520 whole entry): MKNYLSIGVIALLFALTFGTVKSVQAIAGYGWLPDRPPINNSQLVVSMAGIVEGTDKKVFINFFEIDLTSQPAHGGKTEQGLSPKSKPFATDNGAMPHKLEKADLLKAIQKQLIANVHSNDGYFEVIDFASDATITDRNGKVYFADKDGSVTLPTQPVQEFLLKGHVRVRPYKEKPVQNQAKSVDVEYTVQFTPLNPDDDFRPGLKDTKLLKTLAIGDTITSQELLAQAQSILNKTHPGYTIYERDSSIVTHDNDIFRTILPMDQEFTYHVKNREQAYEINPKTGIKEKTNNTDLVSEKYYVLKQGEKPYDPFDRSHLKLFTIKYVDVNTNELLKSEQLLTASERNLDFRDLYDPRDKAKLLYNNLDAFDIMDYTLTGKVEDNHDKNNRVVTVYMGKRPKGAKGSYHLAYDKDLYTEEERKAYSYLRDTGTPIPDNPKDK

Streptococcus = experiment: Group A Streptococcus viability loss, dose response, counter-screen for streptokinase expression inhibitor project, luminescence, BacTiterGlo (AID 1915); format: functional, organism-based;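 also: potency for reduction of bacterial viability or growth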
[3] = inhibitors of intracellular T. cruzi replication, confirmation, NIH3T3 host cells, beta-gal luminescence (AID 2044); format: functional, cell-based;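 also: intracellular parasites grown in NIH/3T3 mouse fibroblasts as host cells; luminescent beta-galactosidase reporter signal from transgenic T. cruzi replicating inside host cells; inhibitors lower the luminescence signal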
[4] = cytotoxicity toward NIH3T3 fibroblasts, dose response, counter-screen, cell-based, ATP luminescence, mouse fibroblasts (AID 2010); format: functional;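 also: cells exposed to compound for about 90 hours before reading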
Cytochrome P450 2C19 = Cytochrome P450 2C19 (Homo sapiens, UniProt P33261); experiment: Cytochrome panel assay with activity outcomes. Panel member name: p450-cyp2c19 Compounds with AC50 equal or less than 10 uM are considered active; format: functional; details: read-out: AC50
Sequence of Cytochrome P450 2C19 (P33261 whole entry): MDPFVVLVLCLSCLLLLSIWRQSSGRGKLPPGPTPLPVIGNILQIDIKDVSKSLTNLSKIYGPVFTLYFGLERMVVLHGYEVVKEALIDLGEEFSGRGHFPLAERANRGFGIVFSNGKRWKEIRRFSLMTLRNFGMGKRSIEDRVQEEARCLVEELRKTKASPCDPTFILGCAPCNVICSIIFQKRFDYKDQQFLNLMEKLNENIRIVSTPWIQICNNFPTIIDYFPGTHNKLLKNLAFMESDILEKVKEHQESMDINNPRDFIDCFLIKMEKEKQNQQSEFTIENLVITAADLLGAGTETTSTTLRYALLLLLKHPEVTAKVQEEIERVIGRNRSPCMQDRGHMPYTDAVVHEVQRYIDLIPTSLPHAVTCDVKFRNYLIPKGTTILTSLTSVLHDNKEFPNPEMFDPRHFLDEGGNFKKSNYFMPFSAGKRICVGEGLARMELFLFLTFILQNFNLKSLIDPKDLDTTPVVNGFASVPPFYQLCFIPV

Cc1n[nH]c(O)c1C(c1ccc(Br)cc1)c1c(C)n[nH]c1O
AC50 [1]: 0.588 µM (active)
EC50 (Protein RecA): 0.338 µM (active)

O=C(c1cc(Cl)c(=O)n(Cc2ccc(Cl)cc2)c1)N1CCOCC1
AC50 (Cytochrome P450 3A4): 28.2 µM (inconclusive)

Cc1cccc(CSC2=NCCN2S(=O)(=O)c2ccc(F)cc2)c1
EC50 [2]: 41.8 µM (active)
EC50 (Streptokinase A): 23.2 µM (active)
EC50 (Streptococcus): > 150 µM (not active)

OC(CN1CCN(Cc2ccccc2)CC1)c1ccc(Br)cc1 (stereo not drawn)
EC50 [3]: 0.324 µM (active)
EC50 [4]: 10 µM (active)

COc1ccc(N2C(=O)C(Cl)=C(N3CCN(Cc4ccccc4)CC3)C2=O)cc1
AC50 [1]: 8.12 µM (active)
EC50 (Protein RecA): 1.67 µM (active)

O=C(COc1ccccc1)Nc1nnc(-c2ccccc2Cl)o1
EC50 [2]: > 150 µM (not active)
EC50 (Streptokinase A): > 150 µM (not active)
EC50 (Streptococcus): > 150 µM (not active)

c1ccc(C2CCC(N3CCC(N4CCCCC4)CC3)CC2)cc1 (stereo not drawn)
AC50 (Cytochrome P450 2C19): 31.6 µM (inconclusive)

COc1ccc(C(=O)NNC(=S)NC(=O)c2ccco2)cc1
EC50 [2]: 2.98 µM (active)
EC50 (Streptokinase A): > 150 µM (not active)
EC50 (Streptococcus): 12 µM (active)

CC(C)C[C@@H](C(=O)NC1CCN(Cc2ccccc2)CC1)N1C(=O)N2CCc3c([nH]c4ccccc34)[C@@]2(C)C1=O
EC50 [3]: 6.88 µM (active)
EC50 [4]: 5.05 µM (active)

C#C[C@]1(O)CC[C@@H]2[C@H]3CCc4cc(OC)ccc4[C@@H]3CC[C@@]21C
AC50 (Cytochrome P450 2C19): 1.26 µM (inconclusive)

COc1ccc(Nc2oc(COc3ccccc3F)nc2C#N)cc1
AC50 [1]: 19.9 µM (active)
EC50 (Protein RecA): 2.44 µM (active)

N#Cc1cccc(-c2nc(NCc3ccccc3)c3ccccc3n2)c1
AC50 (Cytochrome P450 3A4): 20 µM (inconclusive)

CCOc1ccc(CCNC(=O)C(CC)n2nc(C)n3c(cc4sccc43)c2=O)cc1OCC (stereo not drawn)
EC50 [3]: 1.31 µM (active)
EC50 [4]: > 60 µM (not active)

CC(C)(C)c1cc(C(=O)CCN2CCOCC2)cc(C(C)(C)C)c1O
AC50 [1]: 129 µM (active)
EC50 (Protein RecA): 16.8 µM (active)

Cc1ccc(NC(=O)NCCCc2ccccc2)cc1
AC50 (Cytochrome P450 3A4): 7.94 µM (inconclusive)

C/C(CC(=O)Nc1ccc(F)cc1)=N\NC(=O)COc1ccccc1
AC50 [1]: 10.3 µM (active)
EC50 (Protein RecA): 3.72 µM (active)

COc1cc(C(c2c(C)n[nH]c2O)c2c(C)n[nH]c2O)ccc1OC(C)C
AC50 [1]: 0.318 µM (active)
EC50 (Protein RecA): 0.223 µM (active)

CC(NCc1ccncc1)C12CC3CC(CC(C3)C1)C2 (stereo not drawn)
EC50 [3]: > 60 µM (not active)
EC50 [4]: > 60 µM (not active)

COCC(=O)N1CCC[C@@]2(CCN(Cc3nccs3)C2)C1
AC50 (Cytochrome P450 3A4): 20 µM (inconclusive)

CCCCCCC1CC(C)(/C(C)=N/NC(N)=O)OC1=O (stereo not drawn)
AC50 (Cytochrome P450 3A4): 17.8 µM (inconclusive)

COc1ccccc1N=C(S)N(Cc1ccc(C)cc1)Cc1ccccn1
EC50 [3]: 1.55 µM (active)
EC50 [4]: > 60 µM (not active)
